“Also recorded” adds a separate entry of the source.
Assays:
Assay type in all cases: in vivo
DSS-induced colitis = DSS-induced colitis in mice, MC-12 5 or 25 mg/kg ip or po (Example 4); conditions: for reduction of histological score compared to DSS control: p<0.01
TNF-α = test: Colon cytokine mRNA by real-time PCR, DSS mice; conditions: MC-12 at either dose (5 or 25 mg/kg)
Description: (§1) Expression of inflammatory cytokines TNF-α, IFN-γ, IL-1β, IL-6 and IL-10 in the colon was determined by measuring corresponding mRNA levels using real-time PCR. About 100 mg colon tissue were placed in 1 ml of cold Trizol (Invitrogen Life Technologies, Carlsbad, Calif.), immediately homogenized with a rotor power homogenizer, and RNA was extracted according to the manufacturer's instructions. Total RNA was retrotranscribed with M-MLV reverse transcriptase (Invitrogen Life Technologies, Carlsbad, Calif.) using random primers. Real-time quantitative PCR was performed in a CFD-3200 Opticon detector (BioRad, Hercules, Calif., USA) using QuantiTect SYBR Green PCR Kits (Qiagen, Valencia Calif., USA). The PCR cycling conditions were: 40 cycles of 60 seconds at 94° C., 30 seconds at 51.4° C. and 30 seconds at 72° C. PCR primers (forward and reverse primers) were designed based on published sequences: TNF-α: AGGCTGCCCCGACTACGT (SEQ ID NO:12) and […] (SEQ ID NO:13); IFN-γ: CAGCAACAGCAAGGCGAAA (SEQ ID NO:14) and CTGGACCT GTGGGTTGTTGAC (SEQ ID NO:15); IL-1β: […] (SEQ ID NO:16) and […] (SEQ ID NO:17); IL-6: […] (SEQ ID NO:18) and […] (SEQ ID NO:19); […]: […] (SEQ ID NO:20) and […] (SEQ ID NO:21); β-actin: […] (SEQ ID NO:20) and […] (SEQ ID NO:21). Relative expression levels of mRNA were normalized to β-actin.

IFN-γ = test: Colon cytokine mRNA by real-time PCR, DSS mice; conditions: MC-12 at either dose (5 or 25 mg/kg)
Description: as §1

IL-1β = test: Colon cytokine mRNA by real-time PCR, DSS mice; conditions: MC-12 at either dose (5 or 25 mg/kg)
Description: as §1

IL-6 = test: Colon cytokine mRNA by real-time PCR, DSS mice; conditions: MC-12 at either dose (5 or 25 mg/kg)
Description: as §1

IL-10 = test: Colon cytokine mRNA by real-time PCR, DSS mice; conditions: MC-12 at either dose (5 or 25 mg/kg)
Description: as §1

NF-κB = test: Phospho-NF-κB p65 immunohistochemistry of colonic mucosa, DSS mice; conditions: for NF-κB activation / nuclear translocation in colonic mucosa: MC-12 5 and 25 mg/kg, ip and po
Text: NF-κB is the master regulator of inflammation, controlling the transcription of many genes related to this complex process. It is also the molecular target of the activity of MC 12. Therefore, we determined by immunohistochemistry the level of NF-κB activation in the colonic mucosa of our four study groups of mice. There was minimum or […] activation of NF-κB in the colon of control animals (FIG. 4A). DSS, as expected, activated NF-κB in both colonic crypts and stromal cells (FIG. 4B).
The level of NF-κB activation in the colonic mucosa was determined by immunohistochemistry (FIG. 9). NF-κB is the molecular target of MC-12. Immunohistochemical staining for phospho-NF-κB (activate form of NF-κB) was performed on the colon tissue samples. Briefly, paraffin-embedded sections (4 μm thick) were deparaffinized, rehydrated, and microwave heated for 15 minutes in 0.01 mol/L citric acid buffer (pH 6.0) for antigen retrieval. Then, 3% hydrogen peroxide was applied to block endogenous peroxidase activity. After 30 minutes of blocking with normal serum (Invitrogen, Carlsbad, Calif.), the primary rabbit anti-phospho-NF-κB p65 antibody (Cell Signaling) or corresponding control isotype IgG were applied and incubated overnight at 4° C. Slides were washed thrice with PBS, each for 5 minutes. The biotinylated secondary antibody and the streptavidin-biotin complex were applied, each for 60 minutes incubation and following a thrice-wash at room temperature. After rinsing with PBS, the slides were immersed for 10 minutes in 3,3′-diaminobenzidine (Sigma, St. Louis, Mo.) solution (0.4 mg/mL, with 0.003% hydrogen peroxide), monitored under microscope. The reactions were stopped with distilled water. The slides were counterstained with hematoxylin, dehydrated, and coverslipped. Five photos per section were taken and the positive luminosity was evaluated using PhotoShop program.

[1] = test system: cytosolic phospholipase A2 (cPLA2); test: cPLA2 activity in colon tissue of DSS-treated mice
Text: cPLA2 enzymes release fatty acids from the second carbon group of glycerol. This particular phospholipase specifically recognizes the sn-2 acyl bond of phospholipids and catalytically hydrolyzes the bond releasing a lysopospholipid and arachidonic acid; the latter is then modified by cyclooxygenases into active compounds called eicosanoids by cyclooxygenases. Eicosanoids include prostaglandins and leukotrienes which are categorized as inflammatory mediators. […] Treatment with MC12 decreased cPLA2 activity by 18% at 40 μg and 26% at the dose of 80 μg (p<0.05).
We also determined the activity of cytosolic phospholipase A2 (cPLA2) in colonic tissues from study mice. cPLA2s are enzymes that release fatty acids from the second carbon group of glycerol. This particular […] specifically recognizes the sn-2 acyl bond of phospholipids and catalytically hydrolyzes the bond releasing arachidonic acid and lysophospholipids, which are then modified into active compounds called eicosanoids by cyclooxygenases. Eicosanoids include prostaglandins and leukotrienes which are categorized as inflammatory mediators.
A cPLA2 assay kit (Cayman, Ann Arbor, Mich.) was used to determine cPLA2 activity following the instructions of the manufacturer. Briefly, a portion of colon tissue was homogenized in cold PBS and centrifuged at 10,000×g for 15 minutes and 10 μl of supernatant from each sample and 5 μl assay buffer were added into a 96-well microplate. The reaction was initialized by adding 200 μl substrate solutions to all wells and incubating for 5 min at room temperature. The fluorescence intensity was measured using a Multiplate Reader (Molecular Devices) at excitation at 485 nm, emission at 530 nm.

**Q.** Which results are given for Gln-Ala-Trp (QAW) [MC12]?
**A.** reduction of histological score compared to DSS control (DSS-induced colitis; 5 mg/kg po): 50.2%; DSS-induced colonic inflammation (H&E histology) (DSS-induced colitis; 25 mg/kg orally): also decreased DSS-induced colonic inflammation; reduction of histological score compared to DSS control (DSS-induced colitis; 25 mg/kg po): 48.4%; increase in weight compared to baseline (DSS-induced colitis; highest ip dose 500 μg/day, day 8): 7.7%; TNF-α mRNA level in colon (TNF-α): essentially normalized; IFN-γ mRNA level in colon (IFN-γ): below baseline; IL-1β mRNA level in colon (IL-1β): essentially normalized; IL-6 mRNA level in colon (IL-6): below baseline; IL-10 mRNA level in colon (IL-10): below baseline; NF-κB activation in colonic mucosa (NF-κB; MC12 40 and 80 μg ip): less NF-κB nuclear translocation; also recorded: markedly decreased this effect of DSS; NF-κB activation / nuclear translocation in colonic mucosa (NF-κB; listed as MC 12): marked decrease of NF-κB nuclear translocation; NF-κB activation / nuclear translocation in colonic mucosa (NF-κB; listed as MC-12): markedly decreased this effect of DSS in a clear dose-dependent manner; NF-κB activation in colonic mucosa (NF-κB; highest dose 25 mg/kg): essentially normalizing it; decrease of cPLA2 activity ([1]; MC12 40 μg): 18%; decrease of cPLA2 activity ([1]; MC12 80 μg, p<0.05): 26%; decrease of cPLA2 activity ([1]; MC-12 5 mg/kg): 18%; decrease of cPLA2 activity ([1]; MC-12 25 mg/kg, p<0.05): 24%

From patent US20130261066A1, “TREATMENT OF INFLAMMATORY BOWEL DISEASES USING A TRIPEPTIDE” (THE RESEARCH FOUNDATION OF STATE UNIVERSITY OF NEW YORK, priority 2010, published 2013)
